The values that follow come from PMC5513091, “A novel Alzheimer’s disease drug candidate targeting inflammation and fatty acid metabolism” (Alzheimer's Research & Therapy, 2017).

In one data set the test system is HT22. The data set can be described thus: In vitro ischemia. In kind it is cell-based. The settings on record: Mus musculus, HT-22, read-out: Half-maximal effective concentration, In vitro ischemia. Here is the method: (§1) The various phenotypic screening assays were conducted as previously described. Briefly, HT-22, primary cortical neurons, or MC65 was plated and exposed to the different environmental stresses. Cells were treated with varying concentrations of CAD-31, and half-maximal effective concentration (EC50) was determined on the basis of cell viability.
(§2) • An assay that mimics the dramatic loss of neurotrophic support in the old brain is the trophic factor withdrawal assay. Primary embryonic day 18 cortical cells are plated at low density in serum-free medium. At low density, the cells die within 2 days; they can be rescued by combinations of neurotrophic growth factors, but not by one alone ([19] and unpublished data). […] BDNF is a molecule that is also involved in promoting memory and neurogenesis and is reduced in the brain with age and in AD, as well as in other neurological disorders. BDNF has long been considered a drug target for AD [23]. […] A reduction in GSH is a common denominator of old age and essentially all chronic central nervous system (CNS) diseases. J147 and CAD-31 both effectively reduce oxidative stress, with EC50 of 6 nM and 20 nM, respectively. • CAD-31 also prevents loss of energy metabolism that leads to neuron cell death in an in vitro ischemia model. […]

Data set [1] is described as follows: Body weights and food consumption during feeding study. It is filed as in vivo, mice. The settings on record: 200 ppm in diet for 3 months, measured weekly; data not shown. Here is the method:
(§3) The APPswe/PS1∆E9-transgenic mice were characterized previously. Line 85 mice carry two transgenes, the mouse/human chimeric APPswe, linked to Swedish familial AD and human PS1∆E9. At 10 months of age, female transgenic mice were fed a defined diet (Harlan Teklad; Envigo, Indianapolis, IN, USA) with and without CAD-31 (200 ppm, approximately 10 mg/kg/day). Treatment continued for 3 months, followed by behavior testing and tissue harvesting.

The target in a further data set is CYP 3A4 (Homo sapiens, UniProt P08684). As to the kind of experiment: CYP inhibition. It is filed as in vitro ADME.
The next data set in a line: Acute Toxicity (PO). It is filed as in vivo.
Data set [2] concerns Primary embryonic day 18 cortical cells. The data set can be described thus: Trophic factor withdrawal assay. It is filed as cell-based. The settings on record: Cortical neurone; Cortical neuron; cell viability; read-out: Half-maximal effective concentration, Trophic factor withdrawal. On the procedure: as §1, §2
Data set [3] has as its system APPswe/PS1∆E9 mice. The data set can be described thus: Open-field assay. In kind it is in vivo. The following applies: old mice, 200 ppm in chow for 3 months; data not shown.
Data set [4] deals with APPswe/PS1∆E9 mice. As to the kind of experiment: Elevated plus maze. It is filed as in vivo. The settings on record: AD mice fed 200 ppm in chow for 3 months from 10 months of age. On the procedure:
as §3
The elevated plus maze is used to analyze the anxiety response of mice. This test relies upon the tendency of mice to have a fear of heights and to navigate toward dark, enclosed spaces and remain there. Our maze is made of gray plastic and consists of four arms (two open without walls and two enclosed by 15.25-cm-high walls) that are 30 cm long and 5 cm wide in the shape of a plus sign. A video tracking system (EthoVision; Noldus Information Technology) is used to automatically collect behavioral data. Mice are habituated to the room 24 h before testing. Mice are also habituated to the maze for 2 minutes before testing by placing them in the center of the maze and blocking entry to the arms. Mice were tested in the maze for a 5-minute period. The anxiety of mice was measured by comparing the time spent in the open arms with time spent in the closed arms. Statistics were computed using GraphPad InStat software.

A further data set has as its target CYP 2D6 (Homo sapiens, UniProt P10635). The data set can be described thus: CYP inhibition. In kind it is in vitro ADME.

Where only a bound is given, the exact number is not on record here.

CYP 2D6, sequence (P10635 whole entry): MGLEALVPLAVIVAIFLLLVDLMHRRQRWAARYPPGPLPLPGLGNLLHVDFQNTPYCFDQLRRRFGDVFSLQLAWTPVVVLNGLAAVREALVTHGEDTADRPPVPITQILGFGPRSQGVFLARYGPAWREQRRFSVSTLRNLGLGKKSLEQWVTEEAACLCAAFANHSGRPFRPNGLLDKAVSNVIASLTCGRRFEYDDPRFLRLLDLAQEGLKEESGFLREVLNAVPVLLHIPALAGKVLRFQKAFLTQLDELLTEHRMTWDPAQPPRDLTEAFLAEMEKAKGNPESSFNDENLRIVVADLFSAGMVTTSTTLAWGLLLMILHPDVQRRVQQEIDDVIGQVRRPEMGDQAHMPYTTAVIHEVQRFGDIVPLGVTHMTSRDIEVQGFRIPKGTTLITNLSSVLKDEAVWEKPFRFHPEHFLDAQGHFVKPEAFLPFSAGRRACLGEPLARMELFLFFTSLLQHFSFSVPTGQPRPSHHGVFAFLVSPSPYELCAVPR
CYP 3A4, sequence (P08684 whole entry): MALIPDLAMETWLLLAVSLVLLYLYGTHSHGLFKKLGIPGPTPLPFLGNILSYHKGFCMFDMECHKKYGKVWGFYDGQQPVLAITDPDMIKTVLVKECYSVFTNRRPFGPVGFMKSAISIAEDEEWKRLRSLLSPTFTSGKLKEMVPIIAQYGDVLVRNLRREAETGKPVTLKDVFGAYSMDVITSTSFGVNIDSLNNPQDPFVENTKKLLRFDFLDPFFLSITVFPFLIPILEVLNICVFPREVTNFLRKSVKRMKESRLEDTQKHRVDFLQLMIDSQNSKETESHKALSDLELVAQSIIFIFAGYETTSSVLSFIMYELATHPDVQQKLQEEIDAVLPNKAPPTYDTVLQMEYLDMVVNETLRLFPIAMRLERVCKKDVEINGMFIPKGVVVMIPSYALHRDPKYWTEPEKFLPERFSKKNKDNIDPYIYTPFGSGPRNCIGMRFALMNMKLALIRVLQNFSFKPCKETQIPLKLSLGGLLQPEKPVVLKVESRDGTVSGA

Turning to `Cc1ccc(N(/N=C/c2cccc(OC(F)(F)F)c2)C(=O)C(F)(F)F)c(C)c1` [CAD-31], the EC50 in the data set on HT22 is 47 nM; in data set [2] it was 18 nM. In addition, the “body weights and food consumption” value in data set [1] was “no significant differences between the groups”. The EC50 at 10 µM on CYP 3A4 and at CYP 2D6 was above 10000 nM in each case. In addition, the acute toxicity entry in “Acute Toxicity (PO)” is recorded as “no sign of acute toxicity”. Besides, the “Oral acute toxicity LD50” value in “Acute Toxicity (PO)” (observation one week post gavage) is above 2000 mg/kg. Besides, in the data set on APPswe/PS1∆E9 mice [3], the “open-field assay, overt toxicity” value is given as “no differences between groups”. The “time spent on the open arm (disinhibition phenotype)” value with APPswe/PS1∆E9 mice [4] was “completely rescued to age-matched WT levels”.
